In this assay the target is tau (Homo sapiens, UniProt P10636). Put plainly: MCE Phenols Library screening, tau biosensor cell seeding assay (AvZ). It counts as cell-based. The settings on record: for Z repl 1 / Z Repl 2: Z score; for Z repl 1 / raw data 1: replicate 1; for Z Repl 2 / raw data 2: replicate 2; for AvZ (average z score of seeding, SDs from the mean level of seeding): 10 μM phenol in cell cultures, AD brain homogenate preincubated 16 hours, two biological replicates, positive = catalyzes seeding, negative = inhibits.
Sequence of tau (P10636 623-695 limits assumed): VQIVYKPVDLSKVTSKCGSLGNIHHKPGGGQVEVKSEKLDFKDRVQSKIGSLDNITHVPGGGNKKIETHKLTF

Where [1] appears, read: average Z score of two replicates, Phenols Library screen.
Setting [2] is: average Z score of the two replicates, MCE Phenols Library screen.
Setting [3] is: average puncta of the two replicates.
The mark [4] stands for this setting: average Z score of the two replicates, tau seeding.
Where [5] appears, read: average Z score of the two replicates, tau biosensor seeding, MCE Phenols Library screen.

In the case of `C=C(C)[C@H](CC=C(C)C)Cc1c(O)cc(O)c2c1O[C@H](c1ccc(O)cc1OC)CC2=O` [Leachianone A], the “Z repl 1” value is -0.298 and the “Z Repl 2” value worked out at 0.052. For the same compound, the “av Z” value under setting [1] was -0.123. Where the note is “average of raw data 1 and 2”, this compound yielded an av puncta of 18045.6. Besides, for the setting “puncta”, the “raw data 1” value is given as 22771.5 and the “raw data 2” value was 13319.6.
Turning to `COc1cc(C(=O)OCCCCNC(=N)N)cc(OC)c1O` [Leonurine], the “AvZ (average z score of seeding, SDs from the mean level of seeding)” value (“AvZ” below) was 1.35; the “Z repl 1” value is reported as 1.449; the “Z Repl 2” value was found to be 1.251. The same compound returned an av puncta (average of raw data 1 and 2) of 34936.6. Moreover, for the setting “puncta”, the “raw data 1” value amounted to 43747.9 and the “raw data 2” value was determined as 26125.3.
Turning to `Oc1cc(O)c2c(c1)O[C@H](c1ccc(O)c(O)c1)[C@@H](O)[C@H]2O` [Leucocyanidin], the “Z repl 1” value is given as -0.147 and the “Z Repl 2” value is recorded as -0.356. Also, the “av Z” value under setting [2] is -0.251. For the same compound, the av puncta under setting [3] was determined as 16774.6. Further, where the note is “raw puncta”, the “raw data 1” value is listed as 24584.1 and the “raw data 2” value is recorded as 8965.07.
For the compound `COc1c(/C=C/C(=O)c2ccc(O)c(CC=C(C)C)c2)ccc(O)c1O` [Licochalcone D], the “Z repl 1” value was found to be 0.138 and the “Z Repl 2” value was found to be 0.907. Besides, the “av Z” value under setting [4] turned out to be 0.523. The same compound yielded an av puncta (average of raw data 1 and 2) of 25231. For the same compound, under “puncta”, the “raw data 1” value is 28009.4 and the “raw data 2” value is 22452.6.
`CC(C)=CCc1cc2c(=O)cc(-c3ccc(O)cc3)oc2cc1O` [Licoflavone A]: the “Z repl 1” value is 1.035 and the “Z Repl 2” value was 0.525. Under setting [5], the “av Z” value was determined as 0.78. In addition, the av puncta (average of raw data 1 and 2) was 28570.9. In addition, for the setting “puncta”, the “raw data 1” value turned out to be 38768.9 and the “raw data 2” value is reported as 18372.9.
`COc1cc2c(cc1OC)[C@@H](Cc1ccc(O)c(Oc3cc4c(cc3OC)CCN(C)[C@@H]4Cc3ccc(O)cc3)c1)N(C)CC2` [Liensinine]: the “Z repl 1” value is -0.418 and the “Z Repl 2” value is reported as -0.081. For the same compound, the “av Z” value under setting [2] is on record as -0.249. Under setting [3], this compound yielded an av puncta of 16619. Moreover, for the setting “raw puncta”, the “raw data 1” value was determined as 21336.6 and the “raw data 2” value is on record as 11901.3.
Regarding `O=C1C[C@@H](c2ccc(O[C@@H]3O[C@H](CO)[C@@H](O)[C@H](O)[C@H]3O)cc2)Oc2cc(O)ccc21` [Liquiritin], the “Z repl 1” value was 0.131 and the “Z Repl 2” value was -0.067. The “av Z” value under setting [1] was found to be 0.032. This compound also showed an av puncta (average of raw data 1 and 2) of 19987.6. Also, under “puncta”, the “raw data 1” value came out at 27927.2 and the “raw data 2” value is on record as 12048.
Take `O=C(/C=C/c1ccc(O)c2c1[C@H](C(=O)O)[C@@H](c1ccc(O)c(O)c1)O2)O[C@H](Cc1ccc(O)c(O)c1)C(=O)O` [Lithospermic acid]: the “Z repl 1” value was -1.337 and the “Z Repl 2” value was -0.834. Further, the “av Z” value under setting [2] is recorded as -1.085. For the setting “average of raw data 1 and 2”, the av puncta came to 7079.11. Further, where the note is “puncta”, the “raw data 1” value is listed as 10304.3 and the “raw data 2” value was determined as 3853.96.
For the compound `COc1ccc(CCC(=O)c2ccc(O)cc2)c(OC)c1` [Loureirin A], the “Z repl 1” value was -0.527 and the “Z Repl 2” value is recorded as 0.435. Further, the “av Z” value under setting [1] is on record as -0.046. The same compound displayed an av puncta (average of raw data 1 and 2) of 18718.9. Also, under “puncta”, the “raw data 1” value is listed as 20023.7 and the “raw data 2” value is given as 17414.1.
With `COc1cc(OC)c(CCC(=O)c2ccc(O)cc2)c(OC)c1` [Loureirin B], the “Z repl 1” value turned out to be 1.015 and the “Z Repl 2” value is recorded as 0.248. Besides, the “av Z” value under setting [4] came to 0.631. This compound also had an av puncta (average of raw data 1 and 2) of 26974.5. Moreover, where the note is “puncta”, the “raw data 1” value is recorded as 38536.8 and the “raw data 2” value is given as 15412.2.
Regarding `O=C1c2ccccc2C(=O)c2c1cc(O)c(CO)c2O` [Lucidin], the “Z repl 1” value is given as 0.331 and the “Z Repl 2” value is reported as -0.667. In addition, under setting [1], the “av Z” value was -0.168. For the setting “average of raw data 1 and 2”, this compound came in with an av puncta of 17984.5. Moreover, for the setting “puncta”, the “raw data 1” value worked out at 30325.1 and the “raw data 2” value is listed as 5643.99.
In the case of `O=C(O)[C@H]1O[C@@H](Oc2cc(O)c3c(=O)cc(-c4ccc(O)c(O)c4)oc3c2)[C@H](O)[C@@H](O)[C@@H]1O` [Luteolin 7-O-glucuronide], the “Z repl 1” value is -0.6 and the “Z Repl 2” value was -0.013. Besides, the “av Z” value under setting [2] is given as -0.307. Moreover, the av puncta under setting [3] came out at 15884.9. Under “raw puncta”, the “raw data 1” value stood at 19142 and the “raw data 2” value is 12627.8.
On to `Oc1cc(O)c2ccc(-c3ccc(O)c(O)c3)[o+]c2c1.[Cl-]` [Luteolinidin (chloride)], for which the “Z repl 1” value is listed as -0.952 and the “Z Repl 2” value is recorded as -1.154. Under setting [2], the “av Z” value is given as -1.053. Further, the av puncta (average of raw data 1 and 2) is reported as 7678.85. In addition, where the note is “puncta”, the “raw data 1” value is 14921.6 and the “raw data 2” value was 436.094.
Regarding `C=CCc1ccc(O)c(-c2cc(CC=C)ccc2O)c1` [Magnolol], the “Z repl 1” value amounted to 0.295 and the “Z Repl 2” value came to 1.074. The “av Z” value under setting [4] is on record as 0.685. Further, the av puncta (average of raw data 1 and 2) is given as 27065.9. Besides, for the setting “puncta”, the “raw data 1” value is listed as 29891.7 and the “raw data 2” value came out at 24240.1.
Regarding `O=C(CCCCCCCCc1ccc(O)c(O)c1)c1c(O)cccc1O` [Malabaricone C], the “Z repl 1” value is recorded as -0.224 and the “Z Repl 2” value was found to be 0.189. For the same compound, the “av Z” value under setting [1] is -0.018. For the same compound, the av puncta (average of raw data 1 and 2) was determined as 19220. Moreover, for the setting “puncta”, the “raw data 1” value was found to be 23659 and the “raw data 2” value is reported as 14781.1.
As to `COc1ccc(-c2oc3c(CCC(C)(C)O)c(O[C@@H]4O[C@H](CO)[C@@H](O)[C@H](O)[C@H]4O)cc(O)c3c(=O)c2O)cc1` [Maohuoside A], the “Z repl 1” value is listed as -0.381 and the “Z Repl 2” value is given as -0.64. The “av Z” value under setting [2] is -0.51. This compound also displayed an av puncta under setting [3] of 13854.4. Further, where the note is “puncta”, the “raw data 1” value was found to be 21773.2 and the “raw data 2” value is 5935.58.
Regarding `C[C@@H]1O[C@@H](OC[C@H]2O[C@@H](Oc3c(-c4ccc(O)cc4)oc4cc(O)cc(O)c4c3=O)[C@H](O[C@@H]3O[C@@H](C)[C@H](O)[C@@H](O)[C@H]3O)[C@@H](O)[C@H]2O)[C@H](O)[C@H](O)[C@H]1O` [Mauritianin], the “Z repl 1” value turned out to be 0.781 and the “Z Repl 2” value is 1.032. Further, under setting [5], the “av Z” value is 0.906. Moreover, the av puncta (average of raw data 1 and 2) amounted to 29752.2. Besides, under “puncta”, the “raw data 1” value is recorded as 35719.4 and the “raw data 2” value is 23785.
For the compound `O=c1cc(-c2ccc(O)cc2)oc2cc(O)c([C@@H]3O[C@H](CO)[C@@H](O)[C@H](O)[C@H]3O[C@@H]3O[C@H](CO)[C@@H](O)[C@H](O)[C@H]3O)c(O)c12` [Meloside A], the “Z repl 1” value is on record as -1.304 and the “Z Repl 2” value is listed as -0.878. The “av Z” value under setting [2] is given as -1.091. Under “average of raw data 1 and 2”, the av puncta is given as 7038.23. Also, under “puncta”, the “raw data 1” value is listed as 10691.8 and the “raw data 2” value came out at 3384.65.
In the case of `COc1ccc(O)cc1` [Mequinol], the “AvZ” value is 0.258; the “Z repl 1” value was 0.5; the “Z Repl 2” value came out at 0.017. The av puncta (average of raw data 1 and 2) amounted to 22646.3. In addition, where the note is “puncta”, the “raw data 1” value is on record as 32350 and the “raw data 2” value is 12942.5.
As for `COC(=O)Cc1ccc(O)cc1` [Methyl 4-hydroxyphenylacetate], the “AvZ” value is -0.61; the “Z repl 1” value is recorded as -0.457; the “Z Repl 2” value is -0.762. The compound also displayed an av puncta under setting [3] of 12741.3. For the same compound, where the note is “puncta”, the “raw data 1” value is given as 20857.9 and the “raw data 2” value is given as 4624.75.
Consider `COC(=O)c1ccccc1O` [Methyl Salicylate], for which the “AvZ” value was -0.502; the “Z repl 1” value is -0.127; the “Z Repl 2” value is given as -0.877. For the same compound, the av puncta under setting [3] amounted to 14109.8. Under “puncta”, the “raw data 1” value is given as 24825.4 and the “raw data 2” value is on record as 3394.27.
With `COC(=O)/C=C/c1ccc(O)c(O)c1` [Methyl caffeate], the “AvZ” value is -0.349; the “Z repl 1” value is recorded as -0.415; the “Z Repl 2” value is listed as -0.284. The compound further showed an av puncta under setting [3] of 15550.1. Further, for the setting “raw puncta”, the “raw data 1” value was 21362.3 and the “raw data 2” value came out at 9737.92.
For the compound `COC(=O)c1cc(O)c(O)c(O)c1` [Methyl gallate], the “AvZ” value is -1.311; the “Z repl 1” value is on record as -1.727; the “Z Repl 2” value is reported as -0.895. The av puncta (average of raw data 1 and 2) stood at 4412. Further, for the setting “puncta”, the “raw data 1” value worked out at 5612.12 and the “raw data 2” value was found to be 3211.88.
For `COC(=O)[C@@H](Cc1ccc(O)c(O)c1)OC(=O)/C=C/c1ccc(O)c(O)c1` [Methyl rosmarinate], the “Z repl 1” value is recorded as -0.241 and the “Z Repl 2” value was -0.521. Besides, under setting [2], the “av Z” value was -0.381. Also, the av puncta under setting [3] came to 15329.6. Further, for the setting “raw puncta”, the “raw data 1” value is given as 23459.6 and the “raw data 2” value came to 7199.56.
As to `COc1ccc2c(c1OC)O[C@H]1c3ccc(O)cc3OC[C@@H]21` [Methylnissolin], the “Z repl 1” value is -0.257 and the “Z Repl 2” value is on record as -1.004. Moreover, under setting [2], the “av Z” value is reported as -0.63. In addition, the av puncta under setting [3] is on record as 12658.4. For the same compound, where the note is “puncta”, the “raw data 1” value was 23269.5 and the “raw data 2” value was found to be 2047.37.
For `O=C(O)[C@H]1O[C@@H](Oc2c(-c3ccc(O)c(O)c3)oc3cc(O)cc(O)c3c2=O)[C@H](O)[C@@H](O)[C@@H]1O` [Miquelianin], the “Z repl 1” value was 1.087 and the “Z Repl 2” value is 0.729. In addition, the “av Z” value under setting [5] was determined as 0.908. Also, where the note is “average of raw data 1 and 2”, the av puncta came to 29978.8. Besides, under “puncta”, the “raw data 1” value came out at 39402.1 and the “raw data 2” value was 20555.6.

The record behind these values is PMC11784839, “Monoaminergic neurotransmitters are bimodal effectors of tau aggregation” (Science Advances, 2025).
